{"source": "patent US20220000854A1", "about": "(CHASE THERAPEUTICS CORPORATION, priority 2018, published 2022)", "key": {"Caenorhabditis elegans": {"test_system": "Caenorhabditis elegans", "details": "in vivo; cited from earlier work"}, "[1]": {"details": "in vivo; cited from earlier work"}, "[2]": {"details": "in vivo; cited from earlier work", "remark": "listed apart in the source"}, "[3]": {"details": "large doses, acute systemic administration; cited from earlier work"}, "[4]": {"details": "co-treatment with pramipexole; cited from earlier work"}, "[5]": {"test_system": "6-OHDA-lesioned cell model", "details": "cited from earlier work"}, "brain cell systems": {"test_system": "brain cell systems", "details": "cited from earlier work"}, "alpha-synuclein": {"target": "alpha-synuclein (Homo sapiens, UniProt P37840)", "details": "cited from earlier work"}, "[6]": {"test_system": "nigral TH-positive neurons", "details": "MPTP-treated mice, 20 mg/kg; cited from earlier work"}, "nigral dopamine neurons": {"test_system": "nigral dopamine neurons", "details": "6-OHDA mice, injection of 30 mg/kg; cited from earlier work"}, "[7]": {"test_system": "rat corticostriatal slices", "details": "0.3, 1, 3 and 10 μM; cited from earlier work"}, "A53T α-synuclein": {"target": "T1, A53T α-synuclein (Homo sapiens, UniProt P37840, A53T)", "T1 construct": "host or cells: rat brain in vivo, transduced with a viral vector", "details": "oral 40 mg/kg/day, cited from earlier work"}, "[8]": {"test_system": "nigrostriatal dopaminergic neurons", "details": "chronic administration, compared with saline; cited from earlier work"}, "[9]": {"details": "25 mg-50 mg, alone or with levodopa; cited from earlier work"}, "[10]": {"details": "Period 2 (with oral domperidone) versus Period 1 (pramipexole alone)", "description": "The study is single center, single-blind study.\nTo be enrolled in the study, participants must meet the following inclusion/exclusion key criteria:\nHistory of drug or other significant allergy. • 5."}, "[11]": {"details": "5 mg/day of pramipexole, cited from earlier work"}, "dopaminergic neurons": {"test_system": "dopaminergic neurons", "details": "mouse PD model, cited from earlier work"}, "[12]": {"target": "human wild-type alpha-synuclein (Homo sapiens, UniProt P37840)", "details": "in vitro, by H2O2 plus cytochrome c; cited from earlier work"}, "[13]": {"test_system": "human neuroblastoma SH-SY5Y cells", "details": "cited from earlier work"}, "[14]": {"details": "doses approved for motor symptoms of PD; 535 PD patients; cited from earlier work"}, "[15]": {"details": "4.5 mg/day with levodopa, entcapone, selegiline and zonisamide; after switch from immediate-release to extended-release; cited from earlier work"}}}
{"smiles": "CNCCC(Oc1ccc(C(F)(F)F)cc1)c1ccccc1", "note": "(stereo not drawn) [fluoxetine, 1-methylamino-3-phenyl-3-[4-(trifluoromethyl)phenoxy]propane]", "values": [{"measurement": "amyloid-β-induced paralysis", "setting": "Caenorhabditis elegans", "result": "significantly delay amyloid-β-induced paralysis"}, {"measurement": "6-OHDA induced damage", "setting": "[1]", "result": "protect against"}, {"measurement": "MPTP induced damage", "setting": "[2]", "result": "protect against"}, {"measurement": "extracellular concentrations of norepinephrine and dopamine", "setting": "[3]", "result": "significant increase in extracellular concentrations of norepinephrine and dopamine"}, {"measurement": "activity of pramipexole in the forced swimming test", "setting": "[4]", "result": "enhance the activity of pramipexole"}]}
{"smiles": "CCC(C)(C)C(=O)O[C@H]1C[C@@H](C)C=C2C=C[C@H](C)[C@H](CC[C@@H]3C[C@@H](O)CC(=O)O3)[C@H]21", "note": "[simvastatin, (1S,3R,7S,8S,8aR)-8-{2-[(2R,4R)-4-hydroxy-6-oxotetrahydro-2H-pyran-2-yl]ethyl}-3,7-dimethyl-1,2,3,7,8,8a-hexahydronaphthalen-1-yl 2,2-dimethylbutanoate]", "values": [{"measurement": "neuroprotection against dopaminergic neurodegeneration", "setting": "[5]", "result": "robust neuroprotection against dopaminergic neurodegeneration"}, {"measurement": "protection against 6-hydroxydopamine (6-OHDA)", "setting": "brain cell systems", "result": "protect against the deleterious consequences of the dopaminergic neurotoxin 6-hydroxydopamine"}]}
{"smiles": "NS(=O)(=O)Cc1noc2ccccc12", "note": "[zonisamide, benzo[d]isoxazol-3-ylmethanesulfonamide]", "values": [{"measurement": "synuclein oligomer formation / aggregation in vitro", "setting": "alpha-synuclein", "result": "inhibits the in vitro oligomerization and aggregation of alpha-synuclein"}, {"measurement": "loss of nigral TH-positive neurons", "setting": "[6]", "result": "reduced the loss of nigral TH-positive neurons"}, {"measurement": "striatal dopamine depletion", "setting": "[6]", "result": "attenuating the associated striatal dopamine depletion"}, {"measurement": "loss of nigral dopamine neurons", "setting": "nigral dopamine neurons", "result": "prevented the loss of nigral dopamine neurons"}, {"measurement": "rotenone-induced toxicity (loss of corticostriatal field potential amplitude)", "setting": "[7]", "result": "significantly reduced the rotenone-induced toxicity"}, {"measurement": "survival of nigrostriatal dopamine neurons", "setting": "A53T α-synuclein", "result": "no impact on the survival of nigrostriatal dopamine neurons"}, {"measurement": "pace of degeneration", "setting": "A53T α-synuclein; four weeks after viral vector injection, versus control group", "result": "significantly delayed the pace of degeneration"}, {"measurement": "survival of nigrostriatal dopaminergic neurons", "setting": "[8]", "result": "improved the survival of nigrostriatal dopaminergic neurons"}, {"measurement": "motor symptoms", "setting": "[9]", "result": "improve motor symptoms"}]}
{"smiles": "CCCN[C@H]1CCc2nc(N)sc2C1", "note": "[pramipexole, (S)-6-propylamino-4,5,6,7-tetrahydro-1,3-benzothiazole-2-amine]", "values": [{"measurement": "Maximum Tolerated Dose (MTD) of pramipexole", "setting": "[10]", "result": "higher than MTD during Period 1"}, {"measurement": "synuclein oligomer formation / aggregation in vitro", "setting": "alpha-synuclein", "result": "diminishes synuclein oligomer formation in vitro"}, {"measurement": "patients with nausea", "setting": "[11]", "result": 76, "unit": "%"}, {"measurement": "patients with vomiting", "setting": "[11]", "result": 39, "unit": "%"}, {"measurement": "patients not able to complete the study", "setting": "[11]; presumably intolerable GI adverse events", "result": 36, "unit": "%"}, {"measurement": "immunoreactivity for alpha-synuclein", "setting": "dopaminergic neurons; rotenone", "result": "reducing immunoreactivity for alpha-synuclein"}, {"measurement": "toxic effects of rotenone on dopaminergic neurons", "setting": "dopaminergic neurons", "result": "inhibits the toxic effects of rotenone on dopaminergic neurons"}, {"measurement": "oligomerization of human wild-type alpha-synuclein", "setting": "[12]", "result": "decreases the in vitro oligomerization of human wild-type alpha-synuclein"}, {"measurement": "aggregation of alpha-synuclein", "setting": "[13]", "result": "inhibit the aggregation of alpha-synuclein"}, {"measurement": "neuroprotective (disease modifying) activity", "setting": "[14]", "result": "failed to evidence neuroprotective (i.e., disease modifying) activity"}, {"measurement": "hallucinations", "setting": "[15]", "result": "induce hallucinations"}]}
